# According to ChEMBL document CHEMBL5537117, “Novel 3-hydroxypyridin-4(1H)-One derivatives as ferroptosis inhibitors with iron-chelating and reactive oxygen species scavenging activities and therapeutic effect in cisplatin-induced cytotoxicity” (Eur J Med Chem, 2024):
# The source made the active and inactive calls. The rule behind the calls is not given here.
# Experiments:
# HT-22 [1] = experiment: Anti-ferroptotic activity in erastin-induced ferroptosis in mouse HT-22 cells assessed as cell viability incubated for 24 hrs by MTT assay; assay type: functional, cell-based; conditions: HT-22, 24 h
# [2] = Volume of distribution at steady state in rat at 15 mg/kg, IG measured upto 24 hrs by UPLC-MS analysis; assay type: ADME, organism-based; conditions: in vivo, po
# HT-22 [3] = experiment: Anti-ferroptotic activity against Erastin-induced ferroptosis in mouse HT-22 cells assessed as reduction in LIP level by measuring fluorescence intensity measured after 24 hrs by FeRhoNox-1 based flow cytometry analysis; assay type: functional, cell-based; conditions: dose 20-100 µM
# [4] = MRT (0 to infinity) in rat at 15 mg/kg, IG measured upto 24 hrs by UPLC-MS analysis; assay type: ADME, organism-based; conditions: in vivo, po
# [5] = Oral bioavailability in rat at 15 mg/kg, IG measured upto 24 hrs by UPLC-MS analysis; assay type: ADME, organism-based; conditions: in vivo
# HEK-293T [6] = experiment: Protection against cisplatin-induced cytotoxicity in HEK293T cells assessed as reduction in LPO accumulation at 50 uM measured after 24 hrs by BODIPY-C11 based flow cytometry analysis; assay type: functional, cell-based; conditions: Homo sapiens
# HT-22 [7] = experiment: Cytotoxicity against mouse HT-22 cells assessed as reduction in cell viability at 150 uM by MTT assay relative to control; assay type: toxicity, cell-based; conditions: ht-22, 150 µM
# [8] = Volume of distribution at steady state in rat at 5 mg/kg, iv measured upto 24 hrs by UPLC-MS analysis; assay type: ADME, organism-based; conditions: in vivo, read-out: Vdss
# [9] = Antioxidant activity assessed as trolox equivalent of ORAC radical scavenging activity at 8 uM; assay type: functional
# [10] = Half life in rat at 5 mg/kg, iv measured upto 24 hrs by UPLC-MS analysis; assay type: ADME, organism-based; conditions: in vivo
# [11] = Antioxidant activity assessed as ABTS radical scavenging activity incubated in dark for 6 mins by absorbance based microplate reader analysis; assay type: functional
# HEK-293T [12] = experiment: Protection against cisplatin-induced cytotoxicity in HEK293T cells assessed as reduction in attenuation of intracellular Fe2+ at 30 to 80 uM measured after 24 hrs by FeRhoNox-1 based flow cytometry analysis; assay type: functional, cell-based; conditions: Homo sapiens, dose 30-80 µM
# [13] = Half life in rat at 15 mg/kg, IG measured upto 24 hrs by UPLC-MS analysis; assay type: ADME, organism-based; conditions: in vivo, po
# [14] = Log K3 of the compound in 0.1M KCl at pH 2.0 to 10.5 by UV absorption method; assay type: physicochemical
# [15] = Tmax in rat at 15 mg/kg, IG measured upto 24 hrs by UPLC-MS analysis; assay type: ADME, organism-based; conditions: in vivo, po
# [16] = Tmax in rat at 5 mg/kg, iv measured upto 24 hrs by UPLC-MS analysis; assay type: ADME, organism-based; conditions: in vivo
# [17] = AUC (0 to infinity) in rat at 5 mg/kg, iv measured upto 24 hrs by UPLC-MS analysis; assay type: ADME, organism-based; conditions: in vivo
# [18] = AUC (0 to t) in rat at 5 mg/kg, iv measured upto 24 hrs by UPLC-MS analysis; assay type: ADME, organism-based; conditions: in vivo
# [19] = Log K1 of the compound in 0.1M KCl at pH 0.9 to 2.1 by UV absorption method; assay type: physicochemical
# [20] = Metal chelating activity assessed as Fe3+ chelation
# [21] = Acid dissociation constant, pKa3 of the compound in 0.1M KCl at pH 2.0 to 10.5 by UV absorption method; assay type: physicochemical
# [22] = AUC (0 to t) in rat at 15 mg/kg, IG measured upto 24 hrs by UPLC-MS analysis; assay type: ADME, organism-based; conditions: in vivo, po
# [23] = MRT (0 to infinity) in rat at 5 mg/kg, iv measured upto 24 hrs by UPLC-MS analysis; assay type: ADME, organism-based; conditions: in vivo
# [24] = Log K2 of the compound in 0.1M KCl at pH 2.0 to 10.5 by UV absorption method; assay type: physicochemical
# [25] = Acid dissociation constant, pKa1 of the compound in 0.1M KCl at pH 2.0 to 10.5 by UV absorption method; assay type: physicochemical
# [26] = AUC (0 to infinity) in rat at 15 mg/kg, IG measured upto 24 hrs by UPLC-MS analysis; assay type: ADME, organism-based; conditions: in vivo, po
# HT-22 [27] = experiment: Anti-ferroptotic activity against Erastin-induced ferroptosis in mouse HT-22 cells assessed as reduction in LPO accumulation measured after 24 hrs by BODIPY-C11 based flow cytometry analysis; assay type: functional, cell-based; conditions: dose 20-100 µM
# [28] = Cmax in rat at 15 mg/kg, IG measured upto 24 hrs by UPLC-MS analysis; assay type: ADME, organism-based; conditions: in vivo, po
# [29] = Cmax in rat at 5 mg/kg, iv measured upto 24 hrs by UPLC-MS analysis; assay type: ADME, organism-based; conditions: in vivo
# HEK-293T [30] = experiment: Protection against cisplatin-induced cytotoxicity in HEK293T cells assessed as reduction in ROS accumulation at 50 uM measured after 24 hrs by DCFH-DA based flow cytometry analysis; assay type: functional, cell-based; conditions: Homo sapiens
# [31] = Clearance in rat at 15 mg/kg, IG measured upto 24 hrs by UPLC-MS analysis; assay type: ADME, organism-based; conditions: in vivo, po
# [32] = Acid dissociation constant, pKa2 of the compound in 0.1M KCl at pH 2.0 to 10.5 by UV absorption method; assay type: physicochemical
# [33] = Clearance in rat at 5 mg/kg, iv measured upto 24 hrs by UPLC-MS analysis; assay type: ADME, organism-based; conditions: in vivo
# [34] = Antioxidant activity assessed as trolox equivalent of ORAC radical scavenging activity at 4 uM; assay type: functional
# HT-22 [35] = experiment: Anti-ferroptotic activity against Erastin-induced ferroptosis in mouse HT-22 cells assessed as reduction in ROS accumulation measured after 24 hrs by DCFH-DA based flow cytometry analysis; assay type: functional, cell-based; conditions: dose 20-100 µM
# HEK-293T [36] = experiment: Protection against cisplatin-induced cytotoxicity in HEK293T cells assessed as cell viability measured after 24 to 48 hrs by MTT assay; assay type: functional, cell-based; conditions: Homo sapiens
# HT-22 [37] = experiment: Anti-ferroptotic activity against Erastin-induced ferroptosis in mouse HT-22 cells assessed as inhibition of LPO accumulation at 0.2 uM measured after 24 hrs by BODIPY-C11 based flow cytometry analysis relative to control; assay type: functional; design: scale not given: the % may be the effect or the level left
# L02 = experiment: Cytotoxicity against human L02 cells assessed as reduction in cell viability at upto 100 uM by MTT assay; assay type: toxicity, cell-based; conditions: l02, 100 µM
# HT-22 [38] = experiment: Anti-ferroptotic activity against Erastin-induced ferroptosis in mouse HT-22 cells assessed as reduction in ROS accumulation at 100 uM measured after 24 hrs by DCFH-DA based flow cytometry analysis relative to control; assay type: functional; design: scale not given: the % may be the effect or the level left
structure (smiles),measurement,setting,value
Cc1c(O)c(=O)ccn1NC(=O)/C=C/c1cccc(F)c1,EC50,HT-22 [1],14.9 µM
same,Vdss,[2],1.42 L/kg
same,Activity,HT-22 [3],Dose-Dependent Effect
same,MRT inf,[4],8.22 h
same,bioavailability,[5],8.06%
same,Activity,HEK-293T [6],Active
same,Activity,HT-22 [7],> 80%
same,Vd,[8],0.07 L/kg
same,Activity,[9],36
same,half-life,[10],3.74 h
same,IC50,[11],4.35 µM
same,Activity,HEK-293T [12],Active
same,half-life,[13],5.83 h
same,log(activity),[14],36.22
same,Tmax,[15],0.19 h
same,Tmax,[16],8.4 min
same,AUC,[17],365.99 ng·h/mL
same,AUC(0-t) at 24 h,[18],364 ng·h/mL
same,log(activity),[19],14.67
same,Activity,[20],18.6
same,pKa,[21],10.1
same,AUC(0-t) at 24 h,[22],120 ng·h/mL
same,MRT inf,[23],2.34 h
same,log(activity),[24],26.56
same,pKa,[25],2.32
same,AUC,[26],136.25 ng·h/mL
same,Activity,HT-22 [27],Dose-Dependent Effect
same,Cmax,[28],24.1 ng/mL
same,Cmax,[29],472 ng/mL
same,Activity,HEK-293T [30],Active
same,CL,[31],2.33 mL/min/kg
same,pKa,[32],6.78
same,CL,[33],0.33 mL/min/kg
same,Activity,[34],23.8
same,Activity,HT-22 [35],Dose-Dependent Effect
same,EC50,HEK-293T [36],24.9 µM
CCOC(=O)c1ccc(NC2CCCCC2)c(N)c1,EC50,HT-22 [1],0.191 µM
same,Activity,HT-22 [3],inactive
same,Activity,[9],9.43
same,Activity,HT-22 [37],100%
same,IC50,[11],6.27 µM
same,Activity,[34],6.53
same,EC50,HEK-293T [36],5.69 µM
Cc1c(O)c(=O)ccn1NC(=O)/C=C/c1ccccc1F,EC50,HT-22 [1],25.8 µM
same,Activity,HT-22 [7],> 80%
same,Activity,[9],24.9
same,IC50,[11],4.38 µM
same,log(activity),[14],35.75
same,log(activity),[19],14.34
same,Activity,[20],17.6
same,pKa,[21],10.3
same,log(activity),[24],26.41
same,pKa,[25],2.4
same,pKa,[32],6.74
same,Activity,[34],18.1
Cc1c(O)c(=O)ccn1C [DEFERIPRONE],EC50,HT-22 [1],165 µM
same,Activity,L02,Non-Toxic
same,Activity,HT-22 [7],> 80%
same,Activity,[9],9.19
same,IC50,[11],9.7 µM
same,Activity,HEK-293T [12],Active
same,log(activity),[14],34.97
same,log(activity),[19],14.12
same,Activity,[20],17.9
same,log(activity),[24],25.8
same,pKa,[32],9.93
same,Activity,[34],4.73
same,EC50,HEK-293T [36],40 µM
Cc1c(O)c(=O)ccn1NC(=O)/C=C/c1cccc(Cl)c1,Activity,HT-22 [38],100%
same,Activity,[9],6.52
same,IC50,[11],4.9 µM
same,log(activity),[14],35.28
same,log(activity),[19],14.03
same,Activity,[20],17.8
same,pKa,[21],10.1
same,log(activity),[24],26.16
same,pKa,[25],2.52
same,pKa,[32],6.66
same,Activity,[34],3.27
COc1ccc(/C=C/C(=O)Nn2ccc(=O)c(O)c2C)cc1OC,EC50,HT-22 [1],33.5 µM
same,Activity,HT-22 [7],> 80%
same,Activity,[9],21.1
same,IC50,[11],4.9 µM
same,log(activity),[14],35.17
same,log(activity),[19],13.89
same,Activity,[20],17.3
same,pKa,[21],10.2
same,log(activity),[24],25.87
same,pKa,[25],2.29
same,pKa,[32],7.33
same,Activity,[34],15.7
COc1ccc(/C=C/C(=O)Nn2ccc(=O)c(O)c2C)c(OC)c1OC,EC50,HT-22 [1],19.6 µM
same,Activity,HT-22 [7],> 80%
same,Activity,[9],14.8
same,IC50,[11],6.99 µM
same,log(activity),[14],35
same,log(activity),[19],13.72
same,Activity,[20],17
same,pKa,[21],10.2
same,log(activity),[24],25.73
same,pKa,[25],2.1
same,pKa,[32],7.29
same,Activity,[34],8.52
